Source: patent US20150150787A1 (Pearl Therapeutics, Inc., priority 2013, published 2015)

Tests used:
[1] = Aerodynamic particle size distribution by Next Generation Impactor, MF/GP/FF triple cosuspension MDIs (Example 1); assay type: physicochemical; conditions: for FPM values when MF strength was varied: FF 4.8 μg and GPBr 18 μg/actuation, MF 100-300 μg/actuation
Protocol: The FF, GPBr, and MF materials were provided as a separate species of active agent particles, with each of the active agents provided as micronized, crystalline material. The co-suspension compositions were provided in pressurized metered dose inhalers (“MDI” or “MDIs”), with each formulation prepared to provide a delivered dose of 4.8 μg/actuation and 18 μg/actuation, respectively, of FF and GPBr. However, the amount of MF included in the three different compositions was varied, with compositions prepared to provide a delivered dose of MF selected from one of 100 μg/actuation, 200 μg/actuation, and 300 μg/actuation.
The suspending particles used in these co-suspensions were perforated microstructures prepared as described herein using a phospholipid material (DSPC). Drug crystals of GPBr (Boehringer Ingelheim, Petersberg, Va.) were micronized by air jet milling after receipt (median size, X50, ˜1.6 μm), but the FF (Inke, S.A., Barcelona Spain; X50˜1.4 μm) and MF (Hovione, Loures Portugal; X50˜1.6 μm) drug crystals were used as received. The Co-suspension formulations were prepared in HFA 134a propellant (Mexichem, S.A., Tlanepantla Mexico) and filled into 14 mL fluorinated ethylene polymer coated aluminum canisters (Presspart, Blackburn, UK), packaged with 50 μl valves, and delivered using an actuator with orifice size 0.3 mm (Bespak, King's Lynn, UK). Aerodynamic particle size distributions (aPSD) were obtained using the Next Generation Impactor (NGI) with the flow rate set to 30±1 LPM (n=3). Drug content was measured using ion-exchange HPLC with UV detection for FF and GP or reversed-phase HPLC with UV detection for MF.

[2] = Aerosol performance by Next Generation Impactor, BD/GP/FF cosuspension MDIs (Example 2); assay type: physicochemical; conditions: NGI 30 LPM, versus mono/dual cosuspensions or other strengths

MF FPM dose proportionality, slope ([1]; FPM = drug mass stages 3 through MOC, MF 100, 200, 300 μg/actuation, NGI 30 LPM, n=3) | Compound | Coformulation effect (aerosol performance) when formulated in the triple cosuspensions [2] | FPM values when MF strength was varied [1]
0.48 | C[C@@H]1C[C@H]2[C@@H]3CCC4=CC(=O)C=C[C@]4(C)[C@@]3(Cl)[C@@H](O)C[C@]2(C)[C@@]1(OC(=O)c1ccco1)C(=O)CCl [MF, mometasone furoate] | – | –
– | COc1ccc(C[C@@H](C)NC[C@H](O)c2ccc(O)c(NC=O)c2)cc1 (racemic) [FF, (±)-2-hydroxy-5-[(1RS)-1-hydroxy-2-[[(1RS)-2-(4-methoxyphenyl)-1-methylethyl]-amino]ethyl] formanilide] | no coformulation effect was observed | remained virtually unchanged
– | C[N+]1(C)CCC(OC(=O)C(O)(c2ccccc2)C2CCCC2)C1 (stereo not shown) [GP, (3-[(cyclopentylhydroxyphenylacetyl)oxy]-1,1-dimethyl-, bromide)] | – | remained virtually unchanged
